Test results taken from patent US20100081719A1 (priority 2006, published 2010).
Values joined by “and” are separate entries in the source; they are usually repeats but may differ in a detail not shown here. Identical values can stand only once. “Also recorded” adds a separate entry of the source. Counter-ions that a name gives are not always drawn.

System: patients who met the 1990 ACR criteria for fibromyalgia syndrome
Test: Multi-center double-blind, randomized, placebo-controlled study of milnacipran for the treatment of fibromyalgia (Example 1)
Format: in vivo, human
Conditions: for Responders for the treatment of the pain of fibromyalgia (% = m/n): observed cases (OC), intent-to-treat
Method: The primary outcome was a composite responder analysis assessing response rate at weeks 14 and 15, and the secondary analysis assessed response rate at weeks 26 and 27.
This was a multi-center, randomized, double-blinded, placebo-controlled three-arm study, which enrolled 888 patients who met the 1990 ACR criteria for fibromyalgia syndrome as well as the more detailed admission criteria outlined in the protocol.
Patients recorded baseline symptoms for the first two weeks after washing off anti-depressants, benzodiazepines, and certain other drugs that could potentially interfere with efficacy measurements.
All randomized medications (placebo and milnacipran) were administered in a split-dose (BID) fashion. The doses were administered in a dose escalation regimen as outlined below:
d. FMS Status Assessments: Patient pain 24 hour and 7 day recall VAS, the SF-36, Multiple Ability Self-report Questionnaire (MASQ, cognitive function), the Multidimensional Health Assessment Questionnaire (MDHAQ) and the Multidimensional Fatigue Inventory (MFI). Diary assessments include current pain (morning, random daily, and evening reports); daily recall pain (morning report); medications taken (evening report); overall pain past week (weekly report), overall fatigue in the last week (weekly report), and the extent that pain kept the patient from caring for themselves (weekly report).
The SF-36 is a multi-purpose, short-form health survey. It yields an 8-scale profile of functional health and well-being scores, psychometrically-based physical and mental health summary measures, and a preference-based health utility index (Ware J E, Snow K K, Kosinski M, Gandek B. SF-36® Health Survey Manual and Interpretation Guide. Boston, Mass.: New England Medical Center, The Health Institute, 1993). […] The SF-36 has proven useful in surveys of general and specific populations, comparing the relative burden of diseases, and in differentiating the health benefits produced by a wide range of different treatments.
The primary endpoint of this study was a composite responder analysis implementing analysis of three domains of interest, evaluated at […]. The domains measured were:
For the primary analysis, the pain domain score was determined by a calculation that compared the average of treatment weeks 14 and 15 to the two baseline weeks, and treatment weeks 26 and 27 vs. baseline for the secondary analysis. The last observation was carried forward if neither the week 14 nor week 15 (or week 26/27) patient self-reported pain score is available to compare to the baseline value.
A responder was defined as a subject who experienced a greater than 30% reduction in pain from baseline and improvement on the PGIC.
See Table 1 for a summary of the results in the Intent-to-Treat Population and Table 2 for a summary of the Last Observation Carried Forward (LOCF), Baseline Observation Carried Forward (BOCF) and study completer (OC) populations. LOCF is an analysis in which observations are carried forward to the last time point for patients who dropped out. The LOCF analysis treats the carried-forward data as observed data at the last time point. BOCF is an analysis that requires the patient remain active in the trial to be evaluated for response. If a patient withdraws from the trial for any reason they are classed as a non-responder irregardless of their pain and global scores at the time of withdrawal.

CCN(CC)C(=O)C1(c2ccccc2)CC1CN (racemic) [milnacipran, Z-2-aminomethyl-1-phenyl-N, N-diethylcyclopropanecarboxamide hydrochloride]
Treatment of fatigue associated with FMS (MFI total score / MFI physical fatigue), comparison with placebo (100 mg/day vs placebo): superior to placebo | SF-36 Physical Function (100 mg/day, treatment week 3): 6.31 | SF-36 Physical Function (100 mg/day, treatment week 7): 6.62 | SF-36 Physical Function (100 mg/day, treatment week 11): 7.70 | SF-36 Physical Function (100 mg/day, treatment week 15): 7.70 | SF-36 Physical Function (100 mg/day, treatment week 19): 7.71 | SF-36 Physical Function (100 mg/day, treatment week 23): 7.07 | SF-36 Physical Function (100 mg/day, treatment week 27): 7.11 | Responders for the treatment of the pain of fibromyalgia (% = m/n) (100 mg/day, treatment weeks 14-15 (3 month), hydrochloride): 53.33% and 53.3% | Responders for the treatment of the pain of fibromyalgia (% = m/n) (100 mg/day, treatment weeks 14-15 (3 month), listed as Milnacipran, hydrochloride): 72 (53.33) % | Responders for the treatment of the pain of fibromyalgia (% = m/n) (100 mg/day, treatment weeks 26-27 (6 month), hydrochloride): 49.59% and 49.6% | Responders for the treatment of the pain of fibromyalgia (% = m/n) (100 mg/day, treatment weeks 26-27 (6 month), listed as Milnacipran, hydrochloride): 60 (49.59) % | Individual component responder rate, PGIC (LOCF) (100 mg, 3 month): 54.0% | Individual component responder rate, Pain (LOCF) (100 mg, 3 month): 35.7% | Pain composite responder rate, Primary Analysis (LOCF) (100 mg, 3 month): 33.5% | Pain composite responder rate, Sensitivity Analysis I (BOCF) (100 mg, 3 month): 32.1% | Pain composite responder rate, Sensitivity Analysis II (100 mg, 3 month): 32.% | Pain composite responder rate, Sensitivity Analysis III (100 mg, 3 month): 32.1% | Individual component responder rate, PGIC (LOCF) (100 mg, 6 month): 49.6% | Individual component responder rate, Pain (LOCF) (100 mg, 6 month): 35.7% | Pain composite responder rate, Primary Analysis (LOCF) (100 mg, 6 month): 30.8% | Pain composite responder rate, Sensitivity Analysis I (BOCF) (100 mg, 6 month): 26.8% | Pain composite responder rate, Sensitivity Analysis II (100 mg, 6 month): 27.2% | Pain composite responder rate, Sensitivity Analysis III (100 mg, 6 month): 29.5% | MFI (change from baseline) Physical fatigue (range 4 to 20) (100 mg, treatment week 3): −0.99 | MFI (change from baseline) Total score (range 20 to 100) (100 mg, treatment week 3): −3.68 | MFI (change from baseline) Physical fatigue (range 4 to 20) (100 mg, treatment week 7): −1.23 | MFI (change from baseline) Total score (range 20 to 100) (100 mg, treatment week 7): −4.32 | MFI (change from baseline) Physical fatigue (range 4 to 20) (100 mg, treatment week 11): −1.46 | MFI (change from baseline) Total score (range 20 to 100) (100 mg, treatment week 11): −5.16 | MFI (change from baseline) Physical fatigue (range 4 to 20) (100 mg, treatment week 15): −1.29 | MFI (change from baseline) Total score (range 20 to 100) (100 mg, treatment week 15): −5.15 | MFI (change from baseline) Physical fatigue (range 4 to 20) (100 mg, treatment week 19): −1.34 | MFI (change from baseline) Total score (range 20 to 100) (100 mg, treatment week 19): −4.97 | MFI (change from baseline) Physical fatigue (range 4 to 20) (100 mg, treatment week 23): −1.23 | MFI (change from baseline) Total score (range 20 to 100) (100 mg, treatment week 23): −4.44 | MFI (change from baseline) Physical fatigue (range 4 to 20) (100 mg, treatment week 27): −1.37 | MFI (change from baseline) Total score (range 20 to 100) (100 mg, treatment week 27): −5.00 | Treatment of fatigue associated with FMS (MFI), comparison of doses (200 mg/day (high dose) vs 100 mg/day, hydrochloride): superior to milnacipran 100 mg/day; also recorded: significantly more effective treatment | Treatment of fatigue associated with FMS (MFI total score / MFI physical fatigue), comparison with placebo (200 mg/day vs placebo): superior to placebo | SF-36 Physical Function (200 mg/day, treatment week 3): 7.44 | SF-36 Physical Function (200 mg/day, treatment week 7): 8.80 | SF-36 Physical Function (200 mg/day, treatment week 11): 8.46 | SF-36 Physical Function (200 mg/day, treatment week 15): 8.44 | SF-36 Physical Function (200 mg/day, treatment week 19): 8.37 | SF-36 Physical Function (200 mg/day, treatment week 23): 7.85 | SF-36 Physical Function (200 mg/day, treatment week 27): 7.95 | Responders for the treatment of the pain of fibromyalgia (% = m/n) (200 mg/day, treatment weeks 14-15 (3 month), hydrochloride): 55.0% | Responders for the treatment of the pain of fibromyalgia (% = m/n) (200 mg/day, treatment weeks 14-15 (3 month), listed as Milnacipran, hydrochloride): 143 (55.00) % | Responders for the treatment of the pain of fibromyalgia (% = m/n) (200 mg/day, treatment weeks 26-27 (6 month), hydrochloride): 51.74% and 51.7% | Responders for the treatment of the pain of fibromyalgia (% = m/n) (200 mg/day, treatment weeks 26-27 (6 month), listed as Milnacipran, hydrochloride): 119 (51.74) % | Individual component responder rate, PGIC (LOCF) (200 mg, 3 month): 50.6% | Individual component responder rate, Pain (LOCF) (200 mg, 3 month): 38.3% | Pain composite responder rate, Primary Analysis (LOCF) (200 mg, 3 month): 34.9% | Pain composite responder rate, Sensitivity Analysis I (BOCF) (200 mg, 3 month): 32.4% | Pain composite responder rate, Sensitivity Analysis II (200 mg, 3 month): 32.7% | Pain composite responder rate, Sensitivity Analysis III (200 mg, 3 month): 32.4% | Individual component responder rate, PGIC (LOCF) (200 mg, 6 month): 49.9% | Individual component responder rate, Pain (LOCF) (200 mg, 6 month): 35.4% | Pain composite responder rate, Primary Analysis (LOCF) (200 mg, 6 month): 32.2% | Pain composite responder rate, Sensitivity Analysis I (BOCF) (200 mg, 6 month): 27.0% | Pain composite responder rate, Sensitivity Analysis II (200 mg, 6 month): 28.6% | Pain composite responder rate, Sensitivity Analysis III (200 mg, 6 month): 29.9% | MFI (change from baseline) Physical fatigue (range 4 to 20) (200 mg, treatment week 3): −1.20 | MFI (change from baseline) Total score (range 20 to 100) (200 mg, treatment week 3): −4.58 | MFI (change from baseline) Physical fatigue (range 4 to 20) (200 mg, treatment week 7): −1.56 | MFI (change from baseline) Total score (range 20 to 100) (200 mg, treatment week 7): −5.92 | MFI (change from baseline) Physical fatigue (range 4 to 20) (200 mg, treatment week 11): −1.54 | MFI (change from baseline) Total score (range 20 to 100) (200 mg, treatment week 11): −5.67 | MFI (change from baseline) Physical fatigue (range 4 to 20) (200 mg, treatment week 15): −1.50 | MFI (change from baseline) Total score (range 20 to 100) (200 mg, treatment week 15): −5.62 | MFI (change from baseline) Physical fatigue (range 4 to 20) (200 mg, treatment week 19): −1.54 | MFI (change from baseline) Total score (range 20 to 100) (200 mg, treatment week 19): −5.67 | MFI (change from baseline) Physical fatigue (range 4 to 20) (200 mg, treatment week 23): −1.44 | MFI (change from baseline) Total score (range 20 to 100) (200 mg, treatment week 23): −4.94 | MFI (change from baseline) Physical fatigue (range 4 to 20) (200 mg, treatment week 27): −1.49 | MFI (change from baseline) Total score (range 20 to 100) (200 mg, treatment week 27): −5.80 | Relief from fibromyalgia and its symptoms (continued administration (daily for at least three months)): long-term (at least three months) relief | Long-term treatment of fibromyalgia and some of its symptoms, comparison of doses (low dose (100 mg/day) vs high dose (200 mg/day), continued administration): almost as effective as
